Test results from patent publication US20170095565A1, “CHEMICALLY MODIFIED SMALL MOLECULES” (Nektar Therapeutics, priority 2003, published 2017).
Read-outs that look alike come from different tables or passages of the source.

Columns and labels:
[1] = target: T1, recombinant human glucocorticoid receptor (Homo sapiens, UniProt P04150); experiment: Cell-free glucocorticoid receptor binding assay (fluorescence polarization); conditions: for Ki: ± standard error, TA n = 2
T1 construct: purchased PanVera
T1 sequence (P04150 1-777): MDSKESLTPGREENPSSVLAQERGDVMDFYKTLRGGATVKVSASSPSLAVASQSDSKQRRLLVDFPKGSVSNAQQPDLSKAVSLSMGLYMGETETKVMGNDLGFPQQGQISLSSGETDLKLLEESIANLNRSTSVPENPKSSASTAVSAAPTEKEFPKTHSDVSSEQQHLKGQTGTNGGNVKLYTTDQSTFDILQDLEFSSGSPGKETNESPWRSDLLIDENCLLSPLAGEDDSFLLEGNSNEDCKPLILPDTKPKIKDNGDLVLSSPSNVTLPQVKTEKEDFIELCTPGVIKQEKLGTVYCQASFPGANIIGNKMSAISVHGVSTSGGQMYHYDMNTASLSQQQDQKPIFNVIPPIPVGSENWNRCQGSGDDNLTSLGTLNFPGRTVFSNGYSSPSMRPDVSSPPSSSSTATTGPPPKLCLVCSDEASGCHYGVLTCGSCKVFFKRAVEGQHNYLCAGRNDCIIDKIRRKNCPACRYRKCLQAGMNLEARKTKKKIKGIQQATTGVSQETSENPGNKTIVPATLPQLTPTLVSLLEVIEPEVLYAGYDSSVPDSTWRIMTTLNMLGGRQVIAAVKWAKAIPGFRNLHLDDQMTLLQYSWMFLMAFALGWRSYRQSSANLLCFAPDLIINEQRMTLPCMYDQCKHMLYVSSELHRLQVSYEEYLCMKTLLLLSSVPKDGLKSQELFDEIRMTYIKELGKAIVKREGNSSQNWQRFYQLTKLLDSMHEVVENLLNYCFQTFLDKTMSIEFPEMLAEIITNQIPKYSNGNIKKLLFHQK
Text: The assay is based on competitive inhibition binding of a fluorescently labeled high affinity ligand, and generates Ki values that can be compared between the test compounds. […] Thus, as with EC5o values, a higher Ki value reflects a weaker binding affinity.
A commercially available GR binding assay based on fluorescence polarization (FP) was utilized to compare the binding affinity of the PEGylated and native steroids (PanVera Glucocorticoid Receptor Competitor Assay). The assay is based on competitive inhibition and measures the ability of the test compound to compete with a fluorescently labeled ligand (Fluormone™ GS1) for binding to a purified preparation of the recombinant human glucocorticoid receptor.
In its free unbound form, the fluorescent ligand behaves as a small molecule with a high rotational velocity or “tumbling rate”, and correspondingly low ability to polarize fluorescence light (i.e. a low FP). When bound to receptor, the ligand essentially becomes part of a larger molecule, with a slower rotational velocity and a higher FP.
Standard competition assay procedures were employed. Briefly, serial dilutions of the test compound were incubated in triplicate wells of a black 96-well microplate together with the fluorescent ligand, and reactions were initiated by addition of purified recombinant receptor. Assays were incubated in the dark for 2-4 h, and then polarization values were read using the fluorescence polarization function of the Tecan Genios Pro microplate reader.

hGR = target: T2, hGR (Homo sapiens, UniProt P04150); experiment: Glucocorticoid receptor luciferase reporter assay in COS-7 cells; type: cell-based; conditions: for EC50: ± standard error, 20 hours incubation, TA n = 1
T2 construct: expressed in transfected cells; host or cells: COS-7 cells
T2 sequence (P04150 1-777): T1 sequence (P04150 1-777)
Text: To quantitate the effect of PEGylation on the ability of the steroid to enter a cell and elicit a response, a glucocorticoid receptor reporter assay was employed. In this assay, treatment of cells with ligand leads to receptor-mediated expression of the firefly luciferase gene. The level of gene expression is quantitated by an enzymatic luciferase assay, and the amount of light produced is directly proportional to the expression level of the luciferase gene.
For these experiments, the Promega Dual Luciferase Reporter kit was employed. This involves a firefly luciferase reporter gene under the control of the Glucocorticoid Response Element (GRE-Luc), co-transfected into COS-7 cells with a gene encoding the hGR and a control vector containing a Renilla luciferase reporter gene under no promoter or enhancer elements (pRL-Null). The firefly luciferase gene is expressed only upon binding of a ligand-bound receptor to the GRE-Luc enhancer. […]
Cos-cells were plated in 96-well microplates and transfected with the relevant plasmids using standard procedures; all incubations and assays were performed in triplicate in these plates using medium containing DCCS, as described in section 8.3.1. […] Cells were then lysed, and the expression levels of firefly and Renilla luciferase were determined by sequential enzymatic assays provided by the Promega Dual Luciferase Reporter Assay kit. The resulting luminescence was detected using the Tecan Genios Pro Microplate reader, and data were analyzed using GraphPad Prism 4.0 software.
Readings obtained in the absence of steroid represent “basal” background levels of luciferase expression. All readings in the presence of steroid are expressed as a ratio compared with this, and termed “fold increase over basal.” Values obtained for firefly luciferase were normalized to those obtained for Renilla luciferase in the corresponding well in order to compensate for differences in transfection efficiency or cell number.

μ-Opiate Receptors = μ-Opiate Receptors (Homo sapiens, UniProt P35372); experiment: biochemical; type: biochemical
Chain of μ-Opiate Receptors (P35372 whole entry): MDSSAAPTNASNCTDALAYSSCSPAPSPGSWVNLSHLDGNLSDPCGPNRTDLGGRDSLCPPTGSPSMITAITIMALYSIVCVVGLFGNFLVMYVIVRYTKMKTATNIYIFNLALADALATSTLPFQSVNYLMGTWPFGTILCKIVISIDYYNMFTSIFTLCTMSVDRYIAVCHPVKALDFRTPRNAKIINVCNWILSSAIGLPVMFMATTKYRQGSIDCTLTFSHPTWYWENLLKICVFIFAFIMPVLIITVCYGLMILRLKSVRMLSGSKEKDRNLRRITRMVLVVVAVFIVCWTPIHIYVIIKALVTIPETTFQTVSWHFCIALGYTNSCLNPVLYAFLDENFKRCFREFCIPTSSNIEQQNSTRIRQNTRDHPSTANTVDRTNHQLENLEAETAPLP
Text: In the table above, for each compound, the bioactivity is provided as a measure of the relative bioactivity of each of the various PEG conjugates in comparison to parent drug. The EC50 is the concentration of agonist that provokes a response halfway between the baseline and maximum response in a standard dose-response curve.

[2] = In-vitro metabolism, incubation with liver microsomes
Experimental: The procedure calls for the preparation of a NADPH regenerating system (NRS) solution. […] After the solids were all dissolved, the solution was stored in an ice bath.
Male Sprague Dawley rat microsomes (0.5 mL at 20 mg/mL concentration; M00001 from In-vitro Technologies, Baltimore, Md.) were removed from the freezer and thawed in an ice bath. Forty μL of the liver microsomes were diluted to 100 μL with 60 μL of deionized water in a test vial. To the test vial, tris buffer, pH 7.4 (640 μL) and a test article stock (10 μL) were added to have 750 μL volume.
Each test vial and the NRS solution were separately placed in a 37° C. water bath for 5 minutes. The NRS solution (250 μL) was added into each test vial. The reaction timer was started at the addition of the NRS to the first test vial. Each sample (200 μL) was collected and then perchloric acid (20 μL) was added to terminate the reaction. The samples were collected at the following time points: 0-2, 20, 40 and 60 minutes. All of the terminated test vials were stored in an ice bath.
Acetonitrile (100 μL) was added into each test vial, which was then centrifuged at 3000×g for 5 minutes. Supernatant (230 μL) was withdrawn and then 10 μL of the test solution was assayed by an LC/MS method. The concentration of test article in each sample was measured and recorded at each time point.

Mu-opiate = Mu-opiate (Homo sapiens, UniProt P35372); conditions: read-out: IC50, Mu-opiate binding activity
Chain of Mu-opiate (P35372 whole entry): as above

[3] = Oral bioavailability: plasma concentration after oral gavage; type: in vivo, Sprague Dawley rats; conditions: rats, PEGylated compounds normalized to 1 mg/kg dose
Experimental: Female Sprague Dawley® rats (150-200 g) were obtained from Harlan Labs. […] The animals were fasted overnight (day −1), but water was provided ad libitum.
On the morning of dosing (day 0), each rat was weighed and the cannulas flushed with heparin (1000 U/mL). With the aid of a feeding tube, the animals were then dosed orally (gavage) with aqueous formulations containing either the PEGylated or the free drug. The dose was determined on a mg/kg body weight basis. […] At specific time intervals (1, 2 and 4 hours), blood samples (approximately 1.0 mL) were removed through the cannula, placed in 1.5 mL centrifuge tubes containing 14 μL of heparin, mixed and centrifuged to separate the plasma. The plasma samples were frozen (<−70° C.) until assayed. The plasma samples were purified by a precipitation technique and the analyte extracted and assayed using a high performance liquid chromatography (LC) method with a mass selective detector (MSD). […] When appropriate, an internal standard was used in the analysis.

[4] = Solubility of tested compounds (Table 1)
[5] = target: T3, human glucocorticoid receptor (hGR) (Homo sapiens, UniProt P04150); experiment: Steroid-induced nuclear translocation assay of hGR in CHO cells; type: cell-based
T3 construct: expressed in transfected cells; host or cells: Chinese Hamster Ovary (CHO) cells
T3 sequence (P04150 1-777): T1 sequence (P04150 1-777)
Experimental: To determine whether PEGylated steroids can enter cells, and to compare their potency with the parent steroid triamcinolone, cells expressing the human glucocorticoid receptor (hGR) were incubated with increasing concentrations of TA, PEG-3-TA and PEG-7-TA, and the subcellular location of the hGR determined using immunocytochemistry and fluorescence microscopy.
Chinese Hamster Ovary (CHO) cells were plated on glass coverslips in 24-well plates, and transfected with DNA encoding the hGR using 0.25 μg DNA per well. One day following transfection, cells were incubated with increasing concentrations, from 1 nM to 10 μM, of TA, PEG-3-TA or PEG-7-TA, overnight at 37° C.
Stock solutions of steroids were prepared at 2 mM (TA) or 1 mM (PEG-3-TA, PEG-7-TA) in ethanol. Each test compound was diluted to 10 μM into culture medium supplemented with dextran-coated charcoal treated serum (DCCS) (final 5% serum), and then further diluted to the final concentrations. […] Dilutions of steroid were calculated to ensure that cells were not exposed to ethanol concentrations greater than 1% (v/v). […]
Following treatment with test compounds, cells were fixed in 3.7% (v/v) formaldehyde/PBS and permeabilized with 1% (v/v) Triton-X-100 in blocking buffer. Subcellular localization of the transfected hGR was determined by immunocytochemistry using an anti-GR antibody and a FITC-conjugated secondary antibody. […]

[6] = in vivo; cited from earlier work

## CC1(C)O[C@@H]2C[C@H]3[C@@H]4CCC5=CC(=O)C=C[C@]5(C)[C@@]4(F)[C@@H](O)C[C@]3(C)[C@]2(C(=O)CO)O1 [TAA, triamcinolone acetonide]
[1]
  Fold difference vs TAA (Ki, Binding assay): 1
  Ki: 2.2 ± 0.5 nM
hGR
  Fold difference vs TAA (EC50, Luciferase assay): 1
  EC50: 0.062 ± 0.011 nM

## C=CCN1CC[C@]23c4c5ccc(O)c4O[C@H]2C(OCCOCCOCCOC)CC[C@@]3(O)[C@H]1C5 (stereo partly drawn) [β-PEG3-Nal, β-6-CH3—(OCH2CH2)3—O-naloxol]
μ-Opiate Receptors; from EC50 values
  Bioactivity relative to the parent compound: about 35%
μ-Opiate Receptors; μ-opiate receptors, in-vitro
  EC50: 31.7 nM
[2]
  Substrate quality for cytochrome P450 isozymes in isolated rat liver microsomes: poor substrate
Mu-opiate
  IC50: 31.7 nM
0 min
  Percentage of Active Remaining After Incubation with Liver Microsomes: 100.0%
20 min
  Percentage of Active Remaining After Incubation with Liver Microsomes: 83.9%
40 min
  Percentage of Active Remaining After Incubation with Liver Microsomes: 75.2%
60 min
  Percentage of Active Remaining After Incubation with Liver Microsomes: 69.6%
[3]; 1 hr
  Mean Plasma Concentration ± SD, 1 hr: 53.79 ± 5.19 ng/mL
[3]; 2 hr
  Mean Plasma Concentration ± SD, 2 hr: 22.47 ± 8.78 ng/mL
[4]
  Solubility: soluble

## C[C@]12C=CC(=O)C=C1CC[C@H]1[C@@H]3C[C@@H](O)[C@](O)(C(=O)CO)[C@@]3(C)C[C@H](O)[C@@]12F [TA, triamcinolone]
[1]
  Ki: 45.5 ± 21.1 nM
[5]
  Concentration for complete translocation of hGR to the nucleus: ≥ 10 nM
[5]; 1 nM (lowest concentration), overnight
  hGR localization: predominantly in the nucleus
hGR
  EC50: 0.545 nM

## Nc1nc(F)nc2c1ncn2[C@@H]1O[C@H](CO)[C@@H](O)[C@@H]1O [fludarabine]
[6]
  Oral bioavailability: about 70%
